Marks after values point to notes of the source that are not given here.
Key:
Taq polymerase = target: T1, Taq polymerase (Thermus aquaticus, UniProt P19821); experiment: PCR-based screen and amplification of DNA containing unnatural base pairs, Taq (Example 1); type: biochemical
T1 construct: purchased New England Biolabs (Ipswich, Mass.)
Experimental: (§1) The triphosphates of the 6 group were prepared from the previously reported nucleosides (Kubelka, T., Slavetinska, L., Eigner, V. and Hocek, M. Synthesis of 2,6-disubstituted pyridin-3-yl C-2′-deoxyribonucleosides through chemoselective transformations of bromo-chloropyridine C-nucleosides. Org. Biomol. Chem., 11, 4702-4718) according to Ludwig, J. and Eckstein, F. Rapid and efficient synthesis of nucleoside 5′-0-(1-thiotriphosphates), 5′-triphosphates and 2′,3′-cyclophosphorothioates using 2-chloro-4H-1,3,2-benzodioxaphosphorin-4-one. J. Org. Chem., 54, 631-635. The purity of all other triphosphates was confirmed by MALDI-TOF and UV-VIS. Taq and OneTaq DNA polymerases were purchased from New England Biolabs (Ipswich, Mass.). A mixture of dNTPs was purchased from Fermentas (Glen Burnie, Md.). SYBR Green I Nucleic Acid Gel Stain (10,000×) was purchased from Life Technologies (Carlsbad, Calif.). The synthesis of the DNA templates, D8 (Malyshev, D. A., Dhami, K., Quach, H. T., Lavergne, T., Ordoukhanian, P., Torkamani, A. and Romesberg, F. E. Efficient and sequence-independent replication of DNA containing a third base pair establishes a functional six-letter genetic alphabet. Proc. Natl. Acad. Sci. USA, 109, 12005-12010), used for screening rounds 1-5, and D6 (Malyshev, D. A., Seo, Y. J., Ordoukhanian, P. and Romesberg, F. E. PCR with an expanded genetic alphabet. J. Am. Chem. Soc., 131, 14620-14621), used for all other amplifications, was described previously. Sanger sequencing was carried out as described previously (Malyshev, D. A., Dhami, K., Quach, H. T., Lavergne, T., Ordoukhanian, P., Torkamani, A. and Romesberg, F. E. Efficient and sequence-independent replication of DNA containing a third base pair establishes a functional six-letter genetic alphabet. Proc. Natl. Acad. Sci. USA, 109, 12005-12010). Raw Sanger sequencing traces were used to determine the percent retention of the unnatural base pairs, which was converted to fidelity per doubling, as described (Malyshev, D. A., Dhami, K., Quach, H. T., Lavergne, T., Ordoukhanian, P., Torkamani, A. and Romesberg, F. E. Efficient and sequence-independent replication of DNA containing a third base pair establishes a functional six-letter genetic alphabet. Proc. Natl. Acad. Sci. USA, 109, 12005-12010; Malyshev, D. A., Seo, Y. J., Ordoukhanian, P. and Romesberg, F. E. PCR with an expanded genetic alphabet. J. Am. Chem. Soc., 131, 14620-14621).
(§2) All PCR amplifications were performed in a CFX Connect Real-Time PCR Detection System (Bio-Rad), in a total volume of 25 μL using the following conditions: 1× OneTaq reaction buffer, 0.5× Sybr Green I, MgSO4 adjusted to 4.0 mM, 0.2 mM of each dNTP, 50 μM of each unnatural triphosphate, […] of Primer1 and Primer2 (See Table 2), and 0.02 U/μl of the DNA polymerase. Other conditions specific for each round of screening are described in Table 3. Amplified products were purified using DNA Clean and Concentrator-5 spin columns from Zymo Research (Irvine, Calif.). After purification, the PCR products were sequenced on a 3730 DNA Analyzer (Applied Biosystems) to determine the retention of the unnatural base pair as described below. Fidelity was characterized from unnatural base pair (UBP) retention as determined by sequencing with Primer1 on a 3730 DNA Analyzer (Applied Biosystems).
(§3) Specific PCR assay conditions. PCR with the most promising UBPs was carried out with the conditions as described in Table 3. PCR products were further purified on […] gels, followed by single band excision and subsequent clean up using the Zymo Research Zymoclean Gel DNA Recovery Kit. After elution with 20 μl of water, the DNA concentration was measured using fluorescent dye binding (Quant-iT dsDNA HS Assay kit, Life Technologies), and purified amplicons were sequenced in triplicate with both Primer1 and Primer2 to determine UBP retention and thus amplification fidelity. […]

OneTaq polymerase = experiment: PCR-based screen and amplification of DNA containing unnatural base pairs, OneTaq (Example 1); type: biochemical
Experimental: as §1, §2, §3

[1] = Taq, 10 s Extension, 52 cycles, D6 template
[2] = OneTaq, 1 min Extension, 52 cycles, D6 template
[3] = ^a 100 pg D8 template, 16 cycles, Taq polymerase, 68° C. for 60 s
[4] = ^b 10 pg D6 template, 24 cycles, OneTaq polymerase, 68° C. for 10 s

T1 sequence (P19821 whole entry): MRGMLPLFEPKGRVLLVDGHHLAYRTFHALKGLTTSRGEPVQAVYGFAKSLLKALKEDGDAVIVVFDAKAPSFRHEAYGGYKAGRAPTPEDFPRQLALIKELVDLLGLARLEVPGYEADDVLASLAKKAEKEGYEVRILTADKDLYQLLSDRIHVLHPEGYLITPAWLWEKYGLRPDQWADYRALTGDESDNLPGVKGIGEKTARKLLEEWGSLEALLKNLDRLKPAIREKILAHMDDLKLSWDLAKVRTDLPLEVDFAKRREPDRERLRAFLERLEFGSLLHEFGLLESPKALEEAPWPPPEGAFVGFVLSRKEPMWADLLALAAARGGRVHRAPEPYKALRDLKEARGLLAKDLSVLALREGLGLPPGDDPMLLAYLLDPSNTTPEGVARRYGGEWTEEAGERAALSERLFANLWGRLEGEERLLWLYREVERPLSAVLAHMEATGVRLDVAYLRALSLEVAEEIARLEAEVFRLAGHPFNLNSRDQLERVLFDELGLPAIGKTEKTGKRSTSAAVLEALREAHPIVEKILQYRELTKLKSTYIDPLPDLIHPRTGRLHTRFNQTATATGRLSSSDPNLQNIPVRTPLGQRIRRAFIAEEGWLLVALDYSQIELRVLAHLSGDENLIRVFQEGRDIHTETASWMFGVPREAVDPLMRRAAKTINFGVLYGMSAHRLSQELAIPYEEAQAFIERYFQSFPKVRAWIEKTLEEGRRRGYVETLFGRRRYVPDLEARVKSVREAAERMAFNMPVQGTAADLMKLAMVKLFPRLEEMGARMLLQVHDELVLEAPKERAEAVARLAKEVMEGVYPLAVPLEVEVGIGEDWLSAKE

SMILES | Amplification, ×10^12 (Taq polymerase; [1]) | Fidelity per Doubling, % (Taq polymerase; [1]) | Retention, % (Taq polymerase; [1]) | Amplification, ×10^12 (OneTaq polymerase; [2]) | Fidelity per Doubling, % (OneTaq polymerase; [2]) [%] | Retention, % (OneTaq polymerase; [2]) [%] | Retention, % (Taq polymerase; [3]) | Retention, % (OneTaq polymerase; [4])
COc1cc2ccccc2cc1[C@H]1C[C@H](O)[C@@H](COP(=O)(O)OP(=O)(O)OP(=O)(O)O)O1.Cc1ccc2c(=S)n([C@H]3C[C@H](O)[C@@H](COP(=O)(O)OP(=O)(O)OP(=O)(O)O)O3)ccc2c1 [5SICS-NaM, reference compound] | 9.3 ×10^12 | <85^b % | <50^b % | 8.1 ×10^12 | 99.00 ± 0.02 | 77.1 ± 0.7 | – | –
COc1cc(C#N)ccc1[C@H]1C[C@H](O)[C@@H](COP(=O)(O)OP(=O)(O)OP(=O)(O)O)O1.O=P(O)(O)OP(=O)(O)OP(=O)(O)OC[C@H]1O[C@@H](n2cc(F)c3ccsc3c2=S)C[C@@H]1O [FTPT3-CNMO] | – | – | – | – | – | – | 94^a % | –
C#Cc1cc(OC)c([C@H]2C[C@H](O)[C@@H](COP(=O)(O)OP(=O)(O)OP(=O)(O)O)O2)cc1F.O=P(O)(O)OP(=O)(O)OP(=O)(O)OC[C@H]1O[C@@H](n2cc(F)c3ccsc3c2=S)C[C@@H]1O [FTPT3-FEMO] | 5.7 ×10^12 | 99.51 ± 0.11% | 81 ± 4% | 6.3 ×10^12 | 99.24 ± 0.04 | 72.4 ± 1.4 | – | –
COc1cc(I)c(F)cc1[C@H]1C[C@H](O)[C@@H](COP(=O)(O)OP(=O)(O)OP(=O)(O)O)O1.O=P(O)(O)OP(=O)(O)OP(=O)(O)OC[C@H]1O[C@@H](n2cc(F)c3ccsc3c2=S)C[C@@H]1O [FTPT3-FIMO] | 4.8 ×10^12 | 99.60 ± 0.09% | 84 ± 3% | 8.2 ×10^12 | 99.65 ± 0.08 | 86 ± 3 | – | –
COc1cc(I)ccc1[C@H]1C[C@H](O)[C@@H](COP(=O)(O)OP(=O)(O)OP(=O)(O)O)O1.O=P(O)(O)OP(=O)(O)OP(=O)(O)OC[C@H]1O[C@@H](n2cc(F)c3ccsc3c2=S)C[C@@H]1O [FTPT3-IMO] | 5.6 ×10^12 | 99.54 ± 0.13% | 82 ± 5% | 7.1 ×10^12 | 99.38 ± 0.05 | 76.8 ± 1.6 | – | –
COc1cc2ccccc2cc1[C@H]1C[C@H](O)[C@@H](COP(=O)(O)OP(=O)(O)OP(=O)(O)O)O1.O=P(O)(O)OP(=O)(O)OP(=O)(O)OC[C@H]1O[C@@H](n2cc(F)c3ccsc3c2=S)C[C@@H]1O [FTPT3-NaM] | 3.7 ×10^12 | 99.76 ± 0.15% | 91 ± 6% | 7.0 ×10^12 | 99.76 ± 0.06 | 90 ± 2 | – | –
COc1cc(N=[N+]=[N-])ccc1[C@H]1C[C@H](O)[C@@H](COP(=O)(O)OP(=O)(O)OP(=O)(O)O)O1.O=P(O)(O)OP(=O)(O)OP(=O)(O)OC[C@H]1O[C@@H](n2cc(F)c3ccsc3c2=S)C[C@@H]1O [FTPT3-ZMO] | – | – | – | – | – | – | 88^a % | –
C#Cc1cc(OC)c([C@H]2C[C@H](O)[C@@H](COP(=O)(O)OP(=O)(O)OP(=O)(O)O)O2)cc1F.O=P(O)(O)OP(=O)(O)OP(=O)(O)OC[C@H]1O[C@@H](n2ccc3ccccc3c2=S)C[C@@H]1O [SICS-FEMO] | – | – | – | – | – | – | – | 92^b %
COc1cc2ccccc2cc1[C@H]1C[C@H](O)[C@@H](COP(=O)(O)OP(=O)(O)OP(=O)(O)O)O1.O=P(O)(O)OP(=O)(O)OP(=O)(O)OC[C@H]1O[C@@H](n2ccc3ccccc3c2=S)C[C@@H]1O [SICS-NaM] | – | – | – | – | – | – | 99^a % | –
C#Cc1cc(OC)c([C@H]2C[C@H](O)[C@@H](COP(=O)(O)OP(=O)(O)OP(=O)(O)O)O2)cc1F.O=P(O)(O)OP(=O)(O)OP(=O)(O)OC[C@H]1O[C@@H](n2ccc3ncccc3c2=S)C[C@@H]1O [SNICS-FEMO] | – | – | – | – | – | – | – | 95^b %

— patent US11634451B2, “Method for the site-specific enzymatic labelling of nucleic acids in vitro by incorporation of unnatural nucleotides” (The Scripps Research Institute, priority 2013, dated 2023)
